The source of these data is patent publication US9440941B2, “Substituted chroman-6-yloxy-cycloalkanes and their use as pharmaceuticals” (SANOFI, priority 2013, dated 2016).

This assay deals with T1, human NCX1 (Homo sapiens, UniProt P32418).
T1 construct: expressed in transfected cells
Put plainly: Inhibition of Ca2+ influx into cells (NCX1 reverse mode), FLIPR Fluo-4 assay. Particulars: for IC50: inhibition of NCX1 in reverse mode (Ca2+ influx into cells), read-out: NCX1rv IC50; for inhibition at 10 µM: NCX1 reverse mode, IC50 value not determined, read-out: NCX1rv inhibition in % at 10 μM. It counts as cell-based. Summed up: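 Ca2+ influx via reverse-mode exchange was evoked with gramicidin (20 µM final) after 45 min compound exposure at 16 °C in stably transfected CHO cells. Fluo-4 signal (520 nm) was followed on FLIPR at 2 s intervals. Max–min fluorescence gave percentage inhibition, from which IC50 was calculated.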

Counter-ions that a name gives are not always drawn.

One may read the IC50 as the concentration needed to halve the response being measured. For the compound “N-Cyclobutyl-4-(2-phenylchroman-6-yloxy)-cyclohexylamine [compound 142]”, the IC50 stood at 600 nM.

Turning to `CCn1nccc1CNC(=O)C1CCC(Oc2ccc3c(c2)CCC(c2cccc(OC)c2F)O3)CC1` (centres unmarked) [compound 296], the IC50 was 900 nM.

As for `Cc1c(F)cccc1C1CCc2cc(OC3CCC(C(=O)NC4CCCCC4O)CC3)ccc2O1` (single isomer, unassigned) [compound 285], the IC50 came out at 500 nM.

As for `CCCN(CCC)[C@H]1CC[C@H](Oc2ccc3c(c2)CC[C@@H](c2ccccc2)O3)CC1` [compound 34], the IC50 came to 1300 nM.

Turning to `c1ccc(C2CCc3cc(O[C@H]4CC[C@H](NCc5cncs5)CC4)ccc3O2)cc1` (relative stereo) [compound 47], the IC50 was found to be 400 nM.

In the case of `CO[C@H](C)C(=O)N[C@H]1CC[C@H](Oc2ccc3c(c2)CCC(c2ccccc2F)O3)CC1` (some centres unmarked) [compound 255], the half-maximal inhibitory concentration (IC50) was 200 nM.

As for `c1ccc(C2CCc3cc(O[C@H]4CC[C@H](N(CC5CC5)CC5CC5)CC4)ccc3O2)cc1` (stereo partly drawn) [compound 80, N,N-Bis(cyclopropylmethyl)-[trans-4-(2-phenylchroman-6-yloxy)]-cyclohexylamine], the IC50 stood at 500 nM.

Consider `CCn1nccc1CNC(=O)C1CCC(Oc2ccc3c(c2)CCC(c2ccccc2)O3)CC1` (centres unmarked) [compound 14], for which the IC50 came out at 400 nM.

With `Cc1nc(CC(=O)N[C@H]2CC[C@H](Oc3ccc4c(c3)CCC(c3ccccc3F)O4)CC2)c(C)s1` (relative stereo) [compound 245], the IC50 came to 300 nM.

Regarding `c1ccc(C2CCc3cc(O[C@H]4CC[C@H](NCc5cccs5)CC4)ccc3O2)cc1` (relative stereo) [compound 51], the IC50 amounted to 600 nM.

Take `Cn1cc(Cl)c(CN[C@H]2CC[C@H](Oc3ccc4c(c3)CCC(c3ccccc3)O4)CC2)n1` (stereo partly drawn) [compound 62, N-(4-Chloro-1-methyl-pyrazol-3-ylmethyl)-[trans-4-(2-phenylchroman-6-yloxy)]-cyclohexylamine]: the concentration for half-maximal inhibition (IC50) is 600 nM.

On to `CCOCCCNC1CCC(Oc2ccc3c(c2)CCC(c2ccccc2F)O3)CC1` (centres unmarked) [compound 223], for which the IC50 worked out at 3100 nM.

For the compound `CSC(C)CCNC1CCC(Oc2ccc3c(c2)CCC(c2ccccc2F)O3)CC1` (centres unmarked) [compound 170], the IC50 came out at 4600 nM.

Turning to `c1ccc(C2CCc3cc(OC4CCC(NC5CC5)CC4)ccc3O2)cc1` (centres unmarked) [compound 123], the IC50 turned out to be 1000 nM.

`CN(C)C(=O)NC1CCC(Oc2ccc3c(c2)CCC(c2ccccc2)O3)CC1` (centres unmarked) [compound 16]: the concentration for half-maximal inhibition (IC50) was 1300 nM.

In the case of `CC(C)CN[C@H]1CC[C@H](Oc2ccc3c(c2)CCC(c2ccccc2)O3)CC1` (stereo partly drawn) [compound 65, N-Isobutyl-[trans-4-(2-phenylchroman-6-yloxy)]-cyclohexylamine], the IC50 came out at 400 nM.

As for `CSCC(=O)N[C@H]1CC[C@H](Oc2ccc3c(c2)CCC(c2ccccc2)O3)CC1` (relative stereo) [compound 19], the IC50 was determined as 100 nM.

As to `Cc1n[nH]c(C)c1CCC(=O)N[C@H]1CC[C@H](Oc2ccc3c(c2)CCC(c2ccccc2)O3)CC1` (relative stereo) [compound 37], the IC50 came to 300 nM.

Usually inhibition stands for the percentage by which the read-out fell short of the control. For the compound `COCC(C)NC1CCC(Oc2ccc3c(c2)CCC(c2ccccc2C)O3)CC1` (centres unmarked) [compound 188], the inhibition at 10 µM is 96%.

Take `CC1Cc2cc(OC3CCC(C(=O)NCCO)CC3)ccc2OC1c1ccccc1` (centres unmarked) [compound 299]: the IC50 worked out at 1900 nM.

Take `COCC(C)(C)CNC1CCC(Oc2ccc3c(c2)CCC(c2ccccc2F)O3)CC1` (centres unmarked) [compound 211]: the IC50 stood at 2200 nM.

Turning to `Cc1ccnn1CCC(=O)N[C@H]1CC[C@H](Oc2ccc3c(c2)CCC(c2ccccc2)O3)CC1` (relative stereo) [compound 42], the IC50 came to 200 nM.

Consider `NC1(Cc2ccccc2)CCC(Oc2ccc3c(c2)CCC(c2ccccc2)O3)CC1` (single isomer, unassigned) [compound 46, 1-Benzyl-4-(2-phenylchroman-6-yloxy)-cyclohexylamine, stereoisomeric mixture 2], for which the IC50 was found to be 11000 nM.

Take `CSC(C)CCNC1CCC(Oc2ccc3c(c2)CCC(c2c(C)cccc2C)O3)CC1` (centres unmarked) [compound 165]: the IC50 came to 10000 nM.

Regarding `CC(CN(C)C)NC1CCC(Oc2ccc3c(c2)CCC(c2ccccc2)O3)CC1` (centres unmarked) [compound 128], the IC50 was 1700 nM.

As for “N-(2-Hydroxy-1,1-dimethyl-ethyl)-4-(2-phenylchroman-6-yloxy)-cyclohexanecarboxamide [compound 151]”, the IC50 amounted to 1300 nM.

`CC(C)(C)CCNC1CCC(Oc2ccc3c(c2)CCC(c2ccccc2)O3)CC1` (centres unmarked) [compound 127]: the IC50 came out at 1100 nM.

Turning to `O=C(N[C@H]1CC[C@H](Oc2ccc3c(c2)CCC(c2ccccc2)O3)CC1)C1CCC1` (relative stereo) [compound 20], the IC50 amounted to 200 nM.

With `O=C(CN1CCCC1)N[C@H]1CC[C@H](Oc2ccc3c(c2)CCC(c2ccccc2)O3)CC1` (relative stereo) [compound 182], the 50% inhibitory concentration (IC50) was found to be 300 nM.

Regarding `Cc1cc(CN(Cc2cc(C)on2)[C@H]2CC[C@H](Oc3ccc4c(c3)CCC(c3ccccc3)O4)CC2)no1` (stereo partly drawn) [compound 82, N,N-Bis(5-methylisoxazol-3-ylmethyl)-[trans-4-(2-phenylchroman-6-yloxy)]-cyclohexylamine], the IC50 was 3800 nM.

With `COCC(C)NC1CCC(Oc2ccc3c(c2)CCC(c2ccccc2)O3)CC1` (centres unmarked) [compound 110], the IC50 was 1300 nM.

For the compound `Cc1cc(CC(=O)N[C@H]2CC[C@H](Oc3ccc4c(c3)CCC(c3ccccc3F)O4)CC2)on1` (relative stereo) [compound 249], the IC50 stood at 1100 nM.

On to `Cc1c(F)cccc1C1CCc2cc(OC3CCC(C(=O)NCC(C)O)CC3)ccc2O1` (centres unmarked) [compound 276], for which the IC50 was 600 nM.

Take `c1ccc(C2CCc3cc(OC4CCC(NC5CCCCC5)CC4)ccc3O2)cc1` (centres unmarked) [compound 105]: the IC50 stood at 1100 nM.

As for `N[C@H]1CC[C@H](Oc2ccc3c(c2)CCC(c2ccccc2F)O3)CC1` (relative stereo) [compound 176, hydrochloride], the half-maximal inhibitory concentration (IC50) was determined as 1300 nM.

Turning to `CCCC1(N)CCC(Oc2ccc3c(c2)CCC(c2ccccc2)O3)CC1` (centres unmarked) [compound 17, hydrochloride], the IC50 came out at 1000 nM.

Take `CC(=O)N[C@H]1CC[C@@H](Oc2ccc3c(c2)CCC(c2ccccc2)O3)CC1` (relative stereo) [compound 6]: the IC50 amounted to 500 nM.

As for `Cc1c(F)cccc1C1CCc2cc(OC3CCC(C(=O)NC4CCCC4O)CC3)ccc2O1` (single isomer, unassigned; stereoisomer 1) [compound 279, 4-[2-(3-Fluoro-2-methyl-phenyl)chroman-6-yloxy]-N-(2-hydroxycyclopentyl)cyclohexane-carboxamide, stereoisomer 1 (2)], the IC50 was found to be 700 nM.

As to `c1ccc(C2CCc3cc(O[C@H]4CC[C@H](NCc5ccoc5)CC4)ccc3O2)cc1` (stereo partly drawn) [compound 53, N-(Furan-3-ylmethyl)-[trans-4-(2-phenylchroman-6-yloxy)]-cyclohexylamine], the IC50 was found to be 500 nM.

`NC[C@H]1CC[C@@H](Oc2ccc3c(c2)CCC(c2ccccc2)O3)CC1` (relative stereo) [compound 1, hydrochloride]: the IC50 is 500 nM.

For `O=C(N[C@H]1CC[C@H](Oc2ccc3c(c2)CCC(c2ccccc2F)O3)CC1)C1CC1` (relative stereo) [compound 239], the half-maximal inhibitory concentration (IC50) came to 100 nM.

Turning to `CCCCNC1CCC(Oc2ccc3c(c2)CCC(c2ccccc2)O3)CC1` (centres unmarked) [compound 108], the IC50 turned out to be 600 nM.

Turning to `CSC(C)CCN[C@H]1CC[C@H](Oc2ccc3c(c2)CCC(c2ccccc2)O3)CC1` (stereo partly drawn) [compound 64, N-(3-Methylsulfanylbutyl)-[trans-4-(2-phenylchroman-6-yloxy)]-cyclohexylamine], the IC50 was 500 nM.

On to `c1ccc(C2CCc3cc(OC4CCC(NCC5CCCO5)CC4)ccc3O2)cc1` (centres unmarked) [compound 129], for which the IC50 came out at 700 nM.

Take `CSC(C)CCNC(=O)C1CCC(Oc2ccc3c(c2)CCC(c2cccc(F)c2C)O3)CC1` (centres unmarked) [compound 282]: the IC50 stood at 400 nM.

For `O=C(C1CCC(Oc2ccc3c(c2)CCC(c2ccccc2)O3)CC1)N(CCO)CCO` (centres unmarked) [compound 157, N,N-Bis(2-hydroxyethyl)-4-(2-phenylchroman-6-yloxy)-cyclohexanecarboxamide], the IC50 was found to be 2000 nM.

On to `COc1c(F)cccc1C1CCc2cc(OC3CCC(C(=O)NCCO)CC3)ccc2O1` (centres unmarked) [compound 302], for which the IC50 is 400 nM.

For the compound `O=S(=O)(CCc1ccncc1)N[C@H]1CC[C@H](Oc2ccc3c(c2)CC[C@@H](c2ccccc2)O3)CC1` [compound 75], the IC50 came to 1000 nM.

Regarding `O=C(Cn1cncn1)N[C@H]1CC[C@H](Oc2ccc3c(c2)CCC(c2ccccc2)O3)CC1` (relative stereo) [compound 35], the half-maximal inhibitory concentration (IC50) amounted to 100 nM.

As for `Cc1ccccc1C1CCc2cc(OC3CCC(NCC4CCCO4)CC3)ccc2O1` (centres unmarked) [compound 187], the inhibition at 10 µM is 99%.

For the compound `c1ccc(C2CCc3cc(OC4CCC(NCCCOC5CCCC5)CC4)ccc3O2)cc1` (centres unmarked) [compound 126], the IC50 was determined as 1600 nM.

`CC(C)(C)CNC1CCC(Oc2ccc3c(c2)CCC(c2ccccc2)O3)CC1` (centres unmarked) [compound 162, N-(2,2-Dimethylpropyl)-4-(2-phenylchroman-6-yloxy)-cyclohexylamine]: the concentration for half-maximal inhibition (IC50) is 2300 nM.

On to `CNC(=O)CNC(=O)C1CCC(Oc2ccc3c(c2)CCC(c2cccc(F)c2C)O3)CC1` (centres unmarked) [compound 281], for which the half-maximal inhibitory concentration (IC50) was 500 nM.

Take `Cc1cc(CN[C@H]2CC[C@H](Oc3ccc4c(c3)CCC(c3ccccc3)O4)CC2)no1` (stereo partly drawn) [compound 49, N-(5-Methylisoxazol-3-ylmethyl)-[trans-4-(2-phenylchroman-6-yloxy)]-cyclohexylamine]: the IC50 stood at 600 nM.

Turning to `CCn1nccc1CNC(=O)C1CCC(Oc2ccc3c(c2Cl)CCC(c2ccccc2)O3)CC1` (centres unmarked) [compound 293], the IC50 was 4700 nM.

Take `CCCC1(NC2CCC(Oc3ccc4c(c3)CCC(c3ccccc3)O4)CC2)CC1` (centres unmarked) [compound 124]: the IC50 is 2400 nM.
